One experiment has as its target T1, (α4)2(β2)3 nAChR (Homo sapiens, UniProt P17787+P43681).
T1 construct: expressed in transfected cells; host or cells: Xenopus laevis oocytes injected with cRNA
Nature of the experiment: Two-electrode voltage-clamp of ACh-induced currents in Xenopus oocytes. Format: cell-based. Here is the method:
(§1) To begin to characterize LY2087101 interaction with the heteropentameric α4β2 nAChRs, we examined the selectivity of LY2087101 for the two α4β2 nAChR isoforms; high-agonist sensitivity (α4)2(β2)3 and low-agonist sensitivity (α4)3(β2)2 nAChRs. Xenopus oocytes were injected with α4 and β2 subunits RNAs at ratios 8:1 and 1:8 to favor expression of (α4)3(β2)2 and (α4)2(β2)3 nAChRs, respectively.
(§2) Ovarian lobules were surgically harvested from oocytes-positive female Xenopus laevis (NASCO, Fort Atkinson, WI) according to an animal use protocol approved by the Texas A&M Health Sciences Center Institutional Animals Care and Use Committee. The Texas A&M Health Sciences Center Research Facility is registered as an animal research facility with the United States Department of Agriculture and is fully accredited by the American Association for Accreditation of Laboratory Animal Care (AAALAC). For oocytes defolliculation, ovarian lobes were treated with 3 mg/ml collagenase type 2 (Worthington Biomedical, Lakewood, NJ) in Ca + 2-free buffer (85 mM NaCl, 2.5 mM KCl, 1 mM MgCl2, 5 mM HEPES, pH 7.6). Collagenase treatment was allowed to proceed for 3 hours at room temperature with gentle shaking then oocytes were washed several times with buffer to remove collagenase then with ND96-gentamicine buffer. Healthy Stage V and VI oocytes were visually selected and maintained at 18 °C in modified ND96-gentamicine buffer (96 mM NaCl, 2 mM KCl, 1.8 mM CaCl2, 1 mM MgCl2, 5 mM HEPES, 50 µg/ml gentamicin, pH 7.6). Oocytes were injected with 50–100 ng of the desired nAChR subunits cRNA mix at ratios of 8α:1β or 1α:8β to express nAChRs with subunit stoichiometries of 3α:2β (low agonist sensitivity) or 2α:3β (high agonist sensitivity), respectively.
(§3) Oocytes were continuously perfused with recording buffer (100 mM NaCl, 2 mM KCl, 1 mM CaCl2, 0.8 mM MgCl2, 1 mM EGTA, 10 mM Hepes, pH 7.5) except during periods of drug applications.
A general note: In two-electrode clamp one electrode senses voltage and the other passes current.

Another experiment deals with T2, (α4)3(β2)2 nAChR (Homo sapiens, UniProt P17787+P43681).
T2 construct: expressed in transfected cells; host or cells: Xenopus laevis oocytes injected with cRNA
Described as above. Format: cell-based. Here is the method: as §1, §2, §3

[1] abbreviates: ACh alone (control), normalized to 1 mM ACh.
[2] abbreviates: in the presence of 1 µM LY2087101.

T1 sequence (P43681 29-627 limits assumed): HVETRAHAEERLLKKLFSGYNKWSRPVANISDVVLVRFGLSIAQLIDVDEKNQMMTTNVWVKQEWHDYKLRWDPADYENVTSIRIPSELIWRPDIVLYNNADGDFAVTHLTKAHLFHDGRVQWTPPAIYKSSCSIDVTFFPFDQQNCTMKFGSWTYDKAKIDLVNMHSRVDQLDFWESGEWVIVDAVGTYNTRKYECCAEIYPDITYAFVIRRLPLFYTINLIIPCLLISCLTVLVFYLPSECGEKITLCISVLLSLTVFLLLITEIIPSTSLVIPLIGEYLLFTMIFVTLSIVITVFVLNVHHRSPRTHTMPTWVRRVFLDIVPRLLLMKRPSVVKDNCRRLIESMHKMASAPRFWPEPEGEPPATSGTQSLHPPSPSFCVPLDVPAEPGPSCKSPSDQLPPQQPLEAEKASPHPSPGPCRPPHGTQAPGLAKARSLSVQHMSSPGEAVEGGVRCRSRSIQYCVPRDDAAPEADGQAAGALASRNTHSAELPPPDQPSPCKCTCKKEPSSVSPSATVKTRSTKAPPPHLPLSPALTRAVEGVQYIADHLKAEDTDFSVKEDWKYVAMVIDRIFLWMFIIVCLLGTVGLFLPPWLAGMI
T1 sequence (P17787 26-502): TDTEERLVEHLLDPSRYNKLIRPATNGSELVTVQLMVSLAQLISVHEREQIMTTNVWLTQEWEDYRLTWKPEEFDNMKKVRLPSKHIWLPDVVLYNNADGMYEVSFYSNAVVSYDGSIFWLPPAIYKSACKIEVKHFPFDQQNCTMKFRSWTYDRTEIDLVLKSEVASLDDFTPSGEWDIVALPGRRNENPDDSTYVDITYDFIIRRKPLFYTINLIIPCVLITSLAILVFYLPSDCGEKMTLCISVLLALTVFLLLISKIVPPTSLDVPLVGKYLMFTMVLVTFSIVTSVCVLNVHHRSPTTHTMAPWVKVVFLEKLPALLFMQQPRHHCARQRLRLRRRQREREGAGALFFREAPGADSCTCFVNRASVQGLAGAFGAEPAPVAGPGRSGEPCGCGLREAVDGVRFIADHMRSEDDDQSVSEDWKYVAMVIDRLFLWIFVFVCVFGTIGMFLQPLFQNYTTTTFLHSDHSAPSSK
T2 sequence (P43681 29-627 limits assumed): as the sequence (P43681 29-627 limits assumed) above
T2 sequence (P17787 26-502): as the sequence (P17787 26-502) above

As for `CC(=O)OCC[N+](C)(C)C` [ACh, Acetylcholine chloride], the “ACh h (Hill coefficient)” value was determined as 1.2 ± 0.03 on (α4)2(β2)3 nAChR (ACh alone (control)), 1.0 ± 0.04 on (α4)2(β2)3 nAChR (setting [2]), 0.66 ± 0.06 at (α4)3(β2)2 nAChR (ACh alone (control)) and 0.7 ± 0.1 on (α4)3(β2)2 nAChR (setting [2]). In addition, the entries for the “ACh Imax” value at (α4)2(β2)3 nAChR (setting [1]) and on (α4)3(β2)2 nAChR (setting [1]) were 100 ± 1% and 117 ± 6%, respectively.

These data come from paper PMC5775429, “LY2087101 and dFBr share transmembrane binding sites in the (α4)3(β2)2 Nicotinic Acetylcholine Receptor” (Scientific Reports, 2018).
